Source: patent US20140114067A1, “BENZIMIDAZOLE DERIVATIVES AS MITOCHONDRIAL FUNCTION MODULATORS” (KOREA INSTITUTE OF SCIENCE AND TECHNOLOGY, priority 2012, published 2014)

Legend:
[1] = system: HT-22 cells; assay: Improvement in mitochondrial membrane potential dropped by amyloid beta (JC-1 dye); format: cell-based; conditions: compound 5 μM, amyloid beta 5 μM, 3 hours, JC-1 green:red ratio, amyloid beta damage = 0%, normal = 100%
Procedure: (§1) Meanwhile, the compound represented by Formula 1 according to the present invention is evaluated through a test to determine recovery of mitochondrial functions damaged by amyloid beta, as described in the following Test Example. After the test, the results are shown in terms of the percentages of mitochondrial function disorder caused by amyloid beta. The degree of mitochondrial function disorder caused by amyloid beta is taken as 0% and the normal condition in the absence of amyloid beta is shown as 100%.
To a transparent 96-well plate, HT-22 cells are inoculated in a number of 30,000 per well one day before the test. On the next day, JC-1 dye (Stratagen, USA) is diluted with Opti-MEM containing no phenol red to a concentration of 7.5 μM, and the resultant dilution is used to treat the cells for 1 hour and 15 minutes. The dyed cells are washed twice with phosphate buffer solution (PBS), followed by treatment with each compound to a final concentration of 5 μM per well. Then, the cells are cultured at 37° C. for 10 minutes. Particularly, for each drug, two wells are treated with amyloid beta (5 μM) and the other two wells are treated with the vehicle control (5 μM DMSO). Then, the cells are cultured at 37° C. for 3 hours. The fluorescence intensity of each well is read by using a fluorescence plate reader at 485/535 nm (green/J-monomer) and 560/595 nm (red/J-aggregate). Then, the ratio of green:red is calculated and the results are normalized by taking the change of the ratio between addition of amyloid beta and no-addition of amyloid beta in the vehicle control non-treated with drugs as 100%.

[2] = system: HT-22 cells; assay: Recovery of ATP production capability reduced by amyloid beta (luciferin/luciferase); format: cell-based; conditions: compound 5 μM, amyloid beta 5 μM, 7 hours, amyloid beta vehicle control without drug = 0%
Procedure: as §1
To a transparent 96-well plate, HT-22 cells are inoculated in a number of 10,000 per well one day before the test, followed by treatment with each compound to a final concentration of 5 μM per well. The cells are cultured at 37° C. for 10 minutes. Particularly, for each drug, two wells are treated with amyloid beta (5 μM) and the other two wells are treated with the vehicle control (5 μM DMSO). After the treatment, the cells are cultured at 37° C. for 7 hours. The cells treated with each drug are washed twice with PBS, lysed with Triton X-100 (1% in TSBT buffer) and agitated at room temperature for 5 minutes. […] is used to determine the protein amount of each well, and the same amount of protein taken from each well is added to a white 96-well plate. Then, […] (Molecular Probe, USA) for ATP determination containing d-luciferin and luciferase is added thereto and emission peaks generated from each of the wells are determined. After the determination, the peaks are normalized by taking the vehicle control to which amyloid beta is added without treatment with any drug as 0%.

Structure (SMILES) | Improvement in Membrane Potential (%) (5 μM) [1] | ATP Production Capability Recovery (%) (5 μM) [2]
Cc1ccc(C(C)C)cc1NC(=O)Cn1c(-c2cc(Cl)ccc2Cl)nc2ccc(Cl)cc21 [Compound 25, 2-(6-chloro-2-(2,5-dichlorophenyl)-1H-benzo[d]imidazol-1-yl)-N-(5-isopropyl-2-methylphenyl)acetamide] | 87 | 69
CCN1CCCC1CNC(=O)c1ccc(Cn2c(Cc3c(Cl)cccc3Cl)nc3ccccc32)cc1 (centres unmarked) [Compound 32, 4-((2-(2,6-dichlorobenzyl)-1H-benzo[d]imidazol-1-yl)methyl)-N-((1-ethylpyrrolidin-2-yl)methyl)benzamide] | 90 | 51
CN(C)CCCNC(=O)c1ccc(Cn2c(Cc3c(Cl)cccc3Cl)nc3ccccc32)cc1 [Compound 34, 4-((2-(2,6-dichlorobenzyl)-1H-benzo[d]imidazol-1-yl)methyl)-N-(3-(dimethylamino)propyl)benzamide] | 82 | 85
O=C(NCCCN1CCCCC1)c1ccc(Cn2c(Cc3c(Cl)cccc3Cl)nc3ccccc32)cc1 [Compound 37, 4-((2-(2,6-dichlorobenzyl)-1H-benzo[d]imidazol-1-yl)methyl)-N-(3-(piperidin-1-yl)propyl)benzamide] | 90 | 64
